Where “and” joins values, the source holds several entries; their conditions need not be identical. Identical values can stand only once.
Assays:
[1] = Effect on normal hematopoiesis: flow cytometry of myeloid, B- and T-cells in blood; type: in vivo
Text: width, MPV – Mean platelet volume). n = 9 mice / group. Mean +/- SD. b) Flow cytometry analysis […]
assess the effect on myeloid, B- and T-cells. Statistical significance calculated us ing unpaired 2-tailed t-test. n = 9 mice / group. Mean +/- SD. ns - not significant. (c) Representative gating strategy corresponding to the Supplementary Figure 12b for quantification of myeloid, B- and T-cells in blood samples of mice treated with vehicle or AS-99. SSC-A – side scatter area; FSC-A – forward scatter area; FSC-H – forward scatter height.

G9a = G9a (Homo sapiens, UniProt Q96KQ7); assay: HMT selectivity panel; settings: 50 µM compound
Chain of G9a (Q96KQ7 whole entry, species assumed): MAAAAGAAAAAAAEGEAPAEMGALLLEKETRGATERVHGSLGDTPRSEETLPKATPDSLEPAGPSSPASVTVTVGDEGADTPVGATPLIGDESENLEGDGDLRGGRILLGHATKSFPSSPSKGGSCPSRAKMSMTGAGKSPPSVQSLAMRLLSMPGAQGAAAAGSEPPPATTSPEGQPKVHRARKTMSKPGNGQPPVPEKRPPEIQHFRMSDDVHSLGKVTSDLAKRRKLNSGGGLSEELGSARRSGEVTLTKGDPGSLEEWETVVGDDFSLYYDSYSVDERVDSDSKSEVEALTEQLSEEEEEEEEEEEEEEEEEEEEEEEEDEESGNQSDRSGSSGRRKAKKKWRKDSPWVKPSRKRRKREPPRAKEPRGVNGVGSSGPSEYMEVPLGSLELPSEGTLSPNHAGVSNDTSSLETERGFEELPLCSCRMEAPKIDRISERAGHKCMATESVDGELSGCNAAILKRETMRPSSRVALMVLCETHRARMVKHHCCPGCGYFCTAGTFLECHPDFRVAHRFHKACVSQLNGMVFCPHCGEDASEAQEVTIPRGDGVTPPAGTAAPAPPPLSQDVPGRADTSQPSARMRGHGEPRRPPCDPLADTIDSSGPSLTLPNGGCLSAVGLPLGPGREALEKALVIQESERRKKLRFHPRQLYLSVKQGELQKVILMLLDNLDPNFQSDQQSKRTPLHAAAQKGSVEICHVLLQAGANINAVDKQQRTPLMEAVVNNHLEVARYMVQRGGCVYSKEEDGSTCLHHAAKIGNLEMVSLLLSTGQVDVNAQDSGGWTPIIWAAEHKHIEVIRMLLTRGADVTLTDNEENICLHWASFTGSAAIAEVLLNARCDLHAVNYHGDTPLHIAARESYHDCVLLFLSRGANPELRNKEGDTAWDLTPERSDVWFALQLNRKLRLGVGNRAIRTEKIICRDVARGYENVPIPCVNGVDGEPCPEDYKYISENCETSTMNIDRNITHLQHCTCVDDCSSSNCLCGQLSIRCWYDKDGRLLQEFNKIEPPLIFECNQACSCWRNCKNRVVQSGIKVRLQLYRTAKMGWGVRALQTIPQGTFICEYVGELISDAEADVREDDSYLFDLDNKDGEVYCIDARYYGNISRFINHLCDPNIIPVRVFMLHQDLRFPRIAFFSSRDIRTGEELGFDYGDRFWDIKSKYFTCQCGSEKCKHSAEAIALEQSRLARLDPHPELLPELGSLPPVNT
Procedure: (§9) mM DTT and 0.01% Triton X-100 was used in experiments containing core histone.
experiments containing nucleosome.
G9a 5 core histone 0.05 mg/mL 1
GLP 5 core histone 0.05 mg/mL 1

EZH2 = EZH2 (Homo sapiens, UniProt Q15910); assay: HMT selectivity panel; settings: EZH2, 50 µM compound
Procedure: as §9
experiments containing nucleosome.
G9a 5 core histone 0.05 mg/mL 1
GLP 5 core histone 0.05 mg/mL 1

RS4;11 cells = assay: MTT cell viability assay; type: cell-based, human; settings: 7 days
Procedure: (§1) Human leukemia cells K562, MV4;11 and RS4;11 (purchased from ATCC) and KOPN8, MOLM13 (purchased from DSMZ) were cultured in RPMI 1640 (Invitrogen) supplemented with 10% heat inactivated (h.i.) FBS and 1% penicillin/streptomycin (Invitrogen). SET2 cells (purchased from DSMZ) were cultured in RPMI 1640 supplemented with 20% h.i. FBS and 1% penicillin/streptomycin. Cells were plated at 1 × 10^5 to 2 × 10^5 cells/mL depending on cell line and treated with 0.25% DMSO or varying concentrations of compounds and incubated at 37 °C, 5% CO2 incubator for 7 days. Media was changed on day 3 or 4 and compounds were resupplied. […] Cell suspensions (100 μL) were transferred to the 96-well plates for each sample in quadruplicate at the time of media change. At day 7, 10 µL of MTT reagent (M6494, Molecular Probes™) was added to each well of the 96 well plate and incubated at 37 °C for 4 h. The formazan was then solubilized by adding 100 µL acidified 10% SDS solution and incubated at 37 °C overnight. Plates were read for absorbance at 570 nm using a PHERAstar BMG microplate reader. The experiments were performed two times in quadruplicates with calculation of mean and SD for each condition. Data were analyzed in Prism 8.0.0 to obtain GI50 values.

SET2 cells = assay: MTT cell viability assay; type: cell-based, human
Procedure: as §1

[2] = test system: MV4;11 leukemic blasts (human CD45+ cells) in NSG mice; assay: Flow cytometry of hCD45+ cells in spleen and peripheral blood; type: in vivo, mouse
Procedure: Red blood cells were lysed with ACK lysis buffer (10-548E, Lonza). Up to 100,000 cells were washed in PBS (with 1% FBS) and stained with the anti–human CD45-BV421 antibody (563879, HI30, BD Biosciences) at 1:50 dilution for 30 min.

MV4;11 cells = assay: MTT cell viability assay; type: cell-based, human; settings: MTT, 7 days
Procedure: (§2) FBS and 1% penicillin/streptomycin. […] Media was changed on day 3 or 4 and compounds were resupplied. […] Cell suspensions (100 μL) were transferred to the 96-well plates for each sample in quadruplicate at the time of media change. At day 7, 10 µL of MTT reagent (M6494, Molecular Probes™) was added to each well of the 96 well plate and incubated at 37 °C for 4 h. The formazan was then solubilized by adding 100 µL acidified 10% SDS solution and incubated at 37 °C overnight. Plates were read for absorbance at 570 nm using a PHERAstar BMG microplate reader. The experiments were performed two times in quadruplicates with calculation of mean and SD for each condition. Data were analyzed in Prism 8.0.0 to obtain GI50 values.
(§3) Supplementary Figure 7. […] (a)
(§4) Titration curves from the MTT cell viability assay performed after 4, 7, and 11 (or 10) days of
(§5) Titration curves from the MTT cell viability assay performed after 7 days of treatment of KOPN8 ,
(§6) MOLM13 and MV4;11 cell lines harboring MLL1 translocation (MLL1-r) or K562 cell line (non-
(§7) Representative graphs are shown
(§8) from two independent MTT experiments performed for each cell line.

MOLM13 cells = assay: MTT cell viability assay; type: cell-based, human; settings: MTT, 7 days
Procedure: as §2, §3, §4, §5, §6, §7, §8

NSD1 = NSD1 (Homo sapiens, UniProt Q96L73); assay: HMT selectivity panel; settings: NSD1, 50 µM compound
Chain of NSD1 (Q96L73 whole entry, species assumed): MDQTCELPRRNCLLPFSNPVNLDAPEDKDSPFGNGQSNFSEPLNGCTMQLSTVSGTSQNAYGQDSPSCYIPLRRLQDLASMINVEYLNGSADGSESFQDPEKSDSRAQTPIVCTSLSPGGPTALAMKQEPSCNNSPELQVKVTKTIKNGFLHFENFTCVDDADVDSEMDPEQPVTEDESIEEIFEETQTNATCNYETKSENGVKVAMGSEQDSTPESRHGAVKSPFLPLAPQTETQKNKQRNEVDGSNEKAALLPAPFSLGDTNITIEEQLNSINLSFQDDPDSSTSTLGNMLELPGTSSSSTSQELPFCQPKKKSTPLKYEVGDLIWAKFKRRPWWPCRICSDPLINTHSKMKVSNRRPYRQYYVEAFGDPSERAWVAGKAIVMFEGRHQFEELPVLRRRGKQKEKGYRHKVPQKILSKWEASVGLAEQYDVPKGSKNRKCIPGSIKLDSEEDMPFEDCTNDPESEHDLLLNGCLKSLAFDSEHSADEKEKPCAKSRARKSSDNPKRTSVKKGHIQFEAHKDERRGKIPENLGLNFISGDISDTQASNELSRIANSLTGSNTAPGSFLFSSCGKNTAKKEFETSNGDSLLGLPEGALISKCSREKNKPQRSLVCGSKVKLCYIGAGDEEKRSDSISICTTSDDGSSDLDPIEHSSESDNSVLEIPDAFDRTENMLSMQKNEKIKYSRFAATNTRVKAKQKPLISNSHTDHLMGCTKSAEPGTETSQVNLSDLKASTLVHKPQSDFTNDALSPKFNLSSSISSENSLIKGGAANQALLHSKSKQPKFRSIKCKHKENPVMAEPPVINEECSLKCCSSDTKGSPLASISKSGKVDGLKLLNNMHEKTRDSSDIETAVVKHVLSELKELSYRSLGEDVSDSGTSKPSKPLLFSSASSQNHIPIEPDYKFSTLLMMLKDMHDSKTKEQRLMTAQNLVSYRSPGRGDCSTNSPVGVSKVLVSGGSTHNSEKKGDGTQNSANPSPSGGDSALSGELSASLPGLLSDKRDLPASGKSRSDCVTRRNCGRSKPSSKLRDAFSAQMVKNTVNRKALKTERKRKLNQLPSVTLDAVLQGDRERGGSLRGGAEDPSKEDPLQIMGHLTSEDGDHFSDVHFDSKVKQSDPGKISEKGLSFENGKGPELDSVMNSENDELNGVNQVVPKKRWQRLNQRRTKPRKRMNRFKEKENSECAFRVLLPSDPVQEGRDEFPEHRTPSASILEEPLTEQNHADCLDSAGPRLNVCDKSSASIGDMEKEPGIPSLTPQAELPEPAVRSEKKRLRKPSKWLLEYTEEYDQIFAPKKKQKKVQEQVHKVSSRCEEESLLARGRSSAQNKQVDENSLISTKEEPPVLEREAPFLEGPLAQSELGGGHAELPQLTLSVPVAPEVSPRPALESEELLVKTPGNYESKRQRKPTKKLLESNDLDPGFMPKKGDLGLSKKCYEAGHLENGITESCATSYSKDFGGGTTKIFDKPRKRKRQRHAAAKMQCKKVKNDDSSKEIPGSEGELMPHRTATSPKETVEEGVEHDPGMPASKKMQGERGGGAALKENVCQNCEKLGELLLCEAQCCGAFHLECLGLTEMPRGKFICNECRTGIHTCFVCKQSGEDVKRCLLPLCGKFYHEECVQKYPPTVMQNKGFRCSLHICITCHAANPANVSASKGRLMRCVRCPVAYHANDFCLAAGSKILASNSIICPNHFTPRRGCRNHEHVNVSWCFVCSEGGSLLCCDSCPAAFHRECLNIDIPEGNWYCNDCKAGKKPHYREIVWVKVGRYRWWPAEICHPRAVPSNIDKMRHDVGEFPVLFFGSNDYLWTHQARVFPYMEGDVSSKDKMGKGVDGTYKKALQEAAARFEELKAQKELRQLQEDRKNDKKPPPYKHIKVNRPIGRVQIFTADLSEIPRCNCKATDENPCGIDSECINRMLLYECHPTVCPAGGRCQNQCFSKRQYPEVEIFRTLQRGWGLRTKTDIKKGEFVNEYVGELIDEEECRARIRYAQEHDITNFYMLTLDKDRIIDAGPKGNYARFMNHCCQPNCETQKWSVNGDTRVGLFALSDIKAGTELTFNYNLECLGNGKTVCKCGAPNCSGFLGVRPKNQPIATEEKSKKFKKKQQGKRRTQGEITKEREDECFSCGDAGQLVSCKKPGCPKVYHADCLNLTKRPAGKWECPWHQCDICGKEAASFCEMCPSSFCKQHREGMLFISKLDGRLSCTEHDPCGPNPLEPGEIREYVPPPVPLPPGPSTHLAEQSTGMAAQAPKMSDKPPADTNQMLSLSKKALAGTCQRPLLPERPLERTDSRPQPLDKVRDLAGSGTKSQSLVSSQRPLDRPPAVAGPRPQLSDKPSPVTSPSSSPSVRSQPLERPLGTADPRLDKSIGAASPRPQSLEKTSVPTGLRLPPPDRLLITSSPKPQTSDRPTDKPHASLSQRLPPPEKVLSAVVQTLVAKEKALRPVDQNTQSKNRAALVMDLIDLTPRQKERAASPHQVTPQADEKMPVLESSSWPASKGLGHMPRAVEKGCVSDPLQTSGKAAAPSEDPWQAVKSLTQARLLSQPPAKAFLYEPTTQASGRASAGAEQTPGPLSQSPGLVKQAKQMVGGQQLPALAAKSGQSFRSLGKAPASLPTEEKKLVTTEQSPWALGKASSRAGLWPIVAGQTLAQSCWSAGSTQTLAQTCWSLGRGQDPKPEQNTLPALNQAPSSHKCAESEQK
Text: as §9

[3] = test system: MLL leukemia cells (MV4;11, MOLM13, KOPN8, RS4;11); assay: MTT cell viability assay, MLL leukemia cells as a group; type: cell-based, human; settings: Homo sapiens, MLL leukemia cells
Procedure: as §1
Supplementary Figure 4. Cell viability assay for AS-6 in MLL leukemia cell lines. Titration curves from the MTT cell viability assay performed after 7 days of treatment of human MLL1- […]
replicates. Representative graphs are shown from two independent MTT experiments performed […]
as §3
Titration curves from the MTT cell viability assay performed after 4, 7, and 11 (or 10) days of […]
Titration curves from the MTT cell viability assay performed after 7 days of treatment of KOPN8 , MOLM13 and MV4;11 cell lines harboring MLL1 translocation (MLL1-r) or K562 cell line (non- […]
Representative graphs are shown from two independent MTT experiments performed for each cell line. GI50 values correspond to […]

[4] = Fig S12b, individual mice, AS-99 group
[5] = normal mice, 30 mg/kg, i.p., q.d., 14 days
[6] = individual mice, after last day of treatment, 30 mg/kg q.d. i.p., 30 mg/kg

## CN1CC(C(=O)NCc2ccc3c(-c4cccc(C(N)=S)c4)cn(C4CCN(S(=O)(=O)C(F)(F)F)CC4)c3c2)C1 [AS-99]
[1]; [4]
  B cells: 42.2% and 44% and 40.1% and 47.1% and 47.9% and 45.4% and 35.4% and 37.2% and 39.4%
  Myeloid cells: 16.7% and 17.1% (2×) and 23.3% and 12.6% and 14.8% and 9.84% and 22.2% and 17.7%
  T cells: 27.1% and 24.3% and 22.5% and 18.4% and 27% and 27.8% and 32.5% and 30% and 29.5%
[1]; [5]
  T-cells: unaffected
  myeloid and B-cells: slightly changed (increased and reduced, respectively)
G9a
  activity at 50 µM: 90.9%
G9a; 50 µM
  % activity: 91.9579%
EZH2
  activity at 50 µM: 101%
EZH2; 50 µM
  % activity: 119.029%
RS4;11 cells; log[compound] -4.92082
  % activity RS4;11: 2.655% and 2.343% and 2.187%
RS4;11 cells; log[compound] -5.22185
  % activity RS4;11: 2.03% and 1.718% and 1.874% and 2.655%
RS4;11 cells; log[compound] -5.52288
  % activity RS4;11: 64.3499% and 67.786% and 71.3784%
RS4;11 cells; log[compound] -5.82391
  % activity RS4;11: 99.4924% and 89.8087% and 86.9973% and 90.4334%
RS4;11 cells; log[compound] -6.12494
  % activity RS4;11: 82.4678% and 84.9668% and 84.4982% and 89.3401%
RS4;11 cells; log[compound] -6.42597
  % activity RS4;11: 93.2448% and 101.679% and 103.397%
RS4;11 cells; Homo sapiens, 168 h, RS4;11 (MLL1-r)
  GI50: 3.4 ± 0.1 µM
SET2 cells; Homo sapiens, SET-2, 168 h, SET2 (non MLL1-r), MTT, 7 days
  GI50: > 12 µM
SET2 cells; MTT, 7 days, log[compound] -4.92082
  % activity SET2: 96.0299% and 95.2049% and 87.6257% and 88.1928%
SET2 cells; MTT, 7 days, log[compound] -5.22185
  % activity SET2: 99.0204% and 97.9376% and 92.5754% and 93.5035%
SET2 cells; MTT, 7 days, log[compound] -5.52288
  % activity SET2: 97.5767% and 104.589% and 99.7938% and 98.0407%
SET2 cells; MTT, 7 days, log[compound] -5.82391
  % activity SET2: 91.6473% and 94.4831% and 88.9662% and 87.9866%
SET2 cells; MTT, 7 days, log[compound] -6.12494
  % activity SET2: 83.7071% and 89.6365% and 81.1807% and 83.8618%
SET2 cells; MTT, 7 days, log[compound] -6.42597
  % activity SET2: 83.5525% and 88.76% and 84.5321% and 85.1508%
SET2 cells; MTT, 7 days, log[compound] -6.727
  % activity SET2: 86.1304% and 85.9242% and 90.513% and 87.1101%
SET2 cells; leukemia cells without MLL1 translocations
  effect on proliferation of SET2 cells: no or limited effects at 10 µM or higher concentrations
[2]; [6]
  hCD45+ % in PB: 6.6% and 0.44% and 0.41% and 0.23% and 0.21% and 0.19%
  hCD45+ % in spleen: 2.39% and 0.79% and 1.14% and 1.53% and 0.61% and 1.12% and 0.041%
[2]; last day of treatment
  level of leukemic blasts (human CD45+ cells) in peripheral blood and spleen: significantly lower level
MV4;11 cells; Homo sapiens, 168 h, MV4;11 (MLL1-r)
  GI50: 1.8 ± 0.2 µM
MV4;11 cells; log[compound] -4.92082
  % activity MV4;11: 1.588% and 2.029%
MV4;11 cells; log[compound] -5.22185
  % activity MV4;11: 0.6174% and 0.7056% and 0.9702%
MV4;11 cells; log[compound] -5.52288
  % activity MV4;11: 22.9327% and 24.6086% and 18.5226% and 19.2282%
MV4;11 cells; log[compound] -5.82391
  % activity MV4;11: 65.4465% and 63.065% and 69.151% and 68.269%
MV4;11 cells; log[compound] -6.12494
  % activity MV4;11: 88.9085% and 99.8456% and 101.963% and 98.4344%
MV4;11 cells; log[compound] -6.42597
  % activity MV4;11: 97.7288% and 98.9636% and 100.639% and 102.668%
MOLM13 cells; Homo sapiens, MOLM-13, 168 h, MOLM13 (MLL1-r)
  GI50: 3.6 ± 0.3 µM
MOLM13 cells; log[compound] -4.92082
  % activity MOLM-13: 3.13% and 3.054% and 2.978%
MOLM13 cells; log[compound] -5.22185
  % activity MOLM-13: 1.145% and 1.069% and 1.222%
MOLM13 cells; log[compound] -5.52288
  % activity MOLM-13: 67.0357% and 69.5553% and 72.2275% and 71.6931%
MOLM13 cells; log[compound] -5.82391
  % activity MOLM-13: 99.1792% and 96.2016% and 97.7286% and 103.76%
MOLM13 cells; log[compound] -6.12494
  % activity MOLM-13: 111.472% and 117.274% and 111.243% and 116.205%
MOLM13 cells; log[compound] -6.42597
  % activity MOLM-13: 98.5684% and 93.0712% and 98.6448% and 96.736%
NSD1
  activity at 50 µM: 112%
NSD1; 50 µM
  % activity: 113.763%
[3]
  GI50: 1.8 to 3.6 µM

From publication PMC8121805, “Discovery of first-in-class inhibitors of ASH1L histone methyltransferase with anti-leukemic activity” (Nature Communications, 2021)
